Measured values as given in US11986471B2, “Compounds and methods of use” (Tango Therapeutics, Inc., priority 2018, dated 2024).

Assays:
PRMT5 [1] = biological target: T1, PRMT5 (Homo sapiens, UniProt O14744); test: PRMT5 IC50 assay in the presence of SAM as cofactor; format: biochemical
T1 construct: purchased Viva (custom protein)
Outline: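 IC50 against PRMT5 determined with SAM as cofactor, with no cofactor, and with MTA as cofactor. Ki derived as IC50/1.5 for the SAM assay and IC50/13.5 for the MTA assay; SAM Ki to MTA Ki ratio also reported.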

PRMT5 [2] = biological target: T1, PRMT5; test: PRMT5 IC50 assay with no cofactor; format: biochemical; conditions: read-out: No Co-factor IC50
Outline: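 Ki conversion: SAM arm, Ki=IC50/1.5; MTA arm, Ki=IC50/13.5. No-cofactor arm reported as IC50 only. Selectivity expressed as Ki(SAM)/Ki(MTA).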

PRMT5 [3] = biological target: T1, PRMT5; test: PRMT5 IC50 assay in the presence of MTA as cofactor; format: biochemical; conditions: for IC50: PRMT5, MTA as cofactor; for SAM/MTA Ratio: ratio between Ki in the presence of SAM and Ki in the presence of MTA
Outline: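 IC50 values were measured against human PRMT5 with SAM, with MTA, or with no cofactor. Ki was derived from IC50 as Ki=IC50/1.5 with SAM and Ki=IC50/13.5 with MTA, and the Ki(SAM)/Ki(MTA) ratio was then taken.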

HAP1 MTAP-intact = test: SDMA in-cell western assay, HAP1 MTAP-intact cell line; format: cell-based; conditions: Homo sapiens
Outline: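 IC50 values come from SDMA in-cell western staining of HAP1 cells. The MTAP-intact line carries endogenous MTAP, while its MTAP-deleted counterpart lacks MTAP entirely. A selectivity ratio of at least 3 fold marks a compound as MTAP-selective.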

HAP1 MTAP-deleted = test: SDMA in-cell western assay, HAP1 MTAP-deleted cell line; format: cell-based; conditions: for IC50: Homo sapiens, HAP1 MTAP-deleted cell line; for MTAP Intact/Deleted Ratio: IC50 ratio HAP1 MTAP-intact / HAP1 MTAP-deleted
Outline: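 Readout is cellular SDMA signal by in-cell western, with IC50 values derived from it. The cells are MTAP-null HAP1, matched to an isogenic MTAP-intact HAP1 line.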

T1 sequence (O14744 whole entry): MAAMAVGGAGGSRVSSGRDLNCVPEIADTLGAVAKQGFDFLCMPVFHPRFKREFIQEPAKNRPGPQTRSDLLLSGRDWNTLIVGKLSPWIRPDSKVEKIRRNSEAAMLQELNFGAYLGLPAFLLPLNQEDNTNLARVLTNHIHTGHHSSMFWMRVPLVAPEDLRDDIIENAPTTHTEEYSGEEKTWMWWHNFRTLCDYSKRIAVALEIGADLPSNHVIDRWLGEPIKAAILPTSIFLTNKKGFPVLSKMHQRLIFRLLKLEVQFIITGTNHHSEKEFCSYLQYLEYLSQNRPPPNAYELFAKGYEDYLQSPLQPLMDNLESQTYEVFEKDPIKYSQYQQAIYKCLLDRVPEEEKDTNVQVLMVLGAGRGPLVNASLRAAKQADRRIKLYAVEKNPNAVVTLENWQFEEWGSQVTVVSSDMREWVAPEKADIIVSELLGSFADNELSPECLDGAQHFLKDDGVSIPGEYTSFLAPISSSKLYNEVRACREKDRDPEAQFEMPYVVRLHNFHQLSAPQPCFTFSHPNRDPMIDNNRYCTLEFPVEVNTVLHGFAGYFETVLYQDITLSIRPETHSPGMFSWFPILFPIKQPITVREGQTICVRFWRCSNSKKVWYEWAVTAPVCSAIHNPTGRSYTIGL
T1 sequence (Q9BQA1 whole entry partner): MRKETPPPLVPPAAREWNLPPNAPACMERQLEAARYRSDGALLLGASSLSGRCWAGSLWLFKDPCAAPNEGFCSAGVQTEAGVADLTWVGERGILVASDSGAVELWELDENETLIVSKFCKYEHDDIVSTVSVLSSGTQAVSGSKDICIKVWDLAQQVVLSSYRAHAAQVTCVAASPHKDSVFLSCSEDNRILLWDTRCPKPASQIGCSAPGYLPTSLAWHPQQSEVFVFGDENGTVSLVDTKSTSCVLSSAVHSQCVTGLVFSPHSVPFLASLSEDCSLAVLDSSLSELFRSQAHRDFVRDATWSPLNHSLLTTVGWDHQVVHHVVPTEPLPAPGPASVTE

Row | SMILES | IC50 (PRMT5 [1]) [nM] | IC50 (PRMT5 [2]) [nM] | IC50 (PRMT5 [3]) [nM] | IC50 (HAP1 MTAP-intact) [nM] | IC50 (HAP1 MTAP-deleted) [nM] | SAM/MTA Ratio (PRMT5 [3]) | MTAP Intact/Deleted Ratio (HAP1 MTAP-deleted)
1 | Cc1ncoc1COc1ccc2c(c1Cl)CCN(C[C@@H](O)CNC(=O)c1cc(NC3CCCC3)ncn1)C2 [Compound 339, N-[(2S)-3-[5-chloro-6-[(4-methyl-1,3-oxazol-5-yl)methoxy]-1,2,3,4-tetrahydroisoquinolin-2-yl)-2-hydroxypropyl]-6-(cxclopentylamino)pyrimidine-4-carboxamide] | 500 to 5000 | ≥ 5000 | 50 to 500 | ≥ 10000 | ≥ 10000 | A (a Ki ratio greater than or equal to 10 fold between the Ki in the presence of SAM and the Ki in the presence of MTA) | C* (an IC50 ratio of less than 3 fold between the IC50 in the HAP1 MTAP-intact cell line and the HAP1 MTAP-deleted cell line)
2 | O=C(NC[C@H](O)CN1CCc2c(ccc(OCc3cnco3)c2Cl)C1)c1cc(NC2CCC2)ncc1F [Compound 340, (S)—N-(3-(5-chloro-6-(oxazol-5-ylmethoxy)-3N-dihydroisoquinolin-2(1H)-yl)-2-hydroxypropyl)-2-(cyclobutylamino)-5-fluoroisonicotinamide] | 500 to 5000 | ≥ 5000 | 50 to 500 | ≥ 10000 | ≥ 10000 | A (a Ki ratio greater than or equal to 10 fold between the Ki in the presence of SAM and the Ki in the presence of MTA) | C* (an IC50 ratio of less than 3 fold between the IC50 in the HAP1 MTAP-intact cell line and the HAP1 MTAP-deleted cell line)
3 | CC(=O)N1CCC(Nc2cc(C(=O)NC[C@H](O)CN3CCc4c(ccc(OCc5cnn[nH]5)c4Cl)C3)ncn2)CC1 [Compound 343, 6-[(1-acetyl-4-piperidyl)amino]-N-[(2S)-3-[5-chloro-6-(1H-triazol-5-ylmethoxy)-3,4-dihydro-1H-isoquinolin-2-yl]-2-hydroxy-propyl]pyrimidine-4-carboxamide] | 500 to 5000 | ≥ 5000 | 500 to 5000 | ≥ 10000 | 1000 to 10000 | A (a Ki ratio greater than or equal to 10 fold between the Ki in the presence of SAM and the Ki in the presence of MTA) | C* (an IC50 ratio of less than 3 fold between the IC50 in the HAP1 MTAP-intact cell line and the HAP1 MTAP-deleted cell line)
4 | Cc1ncoc1COc1ccc2c(c1Br)CCN(C[C@@H](O)CNC(=O)c1ccnc(NC3CCCCC3)c1)C2 [Compound 346, (S)—N-(3-(5-bromo-6-((4-methyloxazol-5-yl)methoxy)-3N-dihydroisoquinolin-2(1H)-yl)-2-hydroxypropyl)-2-(cyclohexylamino)isonicotinamide] | 500 to 5000 | ≥ 5000 | 50 to 500 | ≥ 10000 | ≥ 10000 | A (a Ki ratio greater than or equal to 10 fold between the Ki in the presence of SAM and the Ki in the presence of MTA) | C* (an IC50 ratio of less than 3 fold between the IC50 in the HAP1 MTAP-intact cell line and the HAP1 MTAP-deleted cell line)
5 | O=C(NC[C@H](O)CN1CCc2c(ccc(OCc3cnco3)c2Br)C1)c1cccc(NC2CCC2)c1 [Compound 348, (S)—N-(3-(5-bromo-6-(oxazol-5-ylmethoxy)-3,4-dihydroisoquinolin-2(1H)-yl)-2-hydroxypropyl)-3-(cyclobutylamino)benzamide] | 500 to 5000 | ≥ 5000 | 500 to 5000 | ≥ 10000 | ≥ 10000 | A (a Ki ratio greater than or equal to 10 fold between the Ki in the presence of SAM and the Ki in the presence of MTA) | C* (an IC50 ratio of less than 3 fold between the IC50 in the HAP1 MTAP-intact cell line and the HAP1 MTAP-deleted cell line)
6 | CC(=O)N1CC(Nc2cc(C(=O)NC[C@H](O)CN3CCc4cc(OCc5cnco5)ccc4C3)nc(C(C)C)n2)C1 [Compound 349, (S)-6-((1-acetylazetidin-3-yl)amino)-N-(2-hydroxy-3-(6-(oxazol-5-ylmethoxy)-3,4-dihydroisoquinolin-2(1H)-yl)propyl)-2-isopropylpyrimidine-4-carboxamide] | 50 to 500 | 500 to 5000 | 50 to 500 | < 1000 | < 1000 | A (a Ki ratio greater than or equal to 10 fold between the Ki in the presence of SAM and the Ki in the presence of MTA) | C* (an IC50 ratio of less than 3 fold between the IC50 in the HAP1 MTAP-intact cell line and the HAP1 MTAP-deleted cell line)
7 | Cc1ncoc1COc1ccc2c(c1Br)CCN(C[C@@H](O)CNC(=O)c1ccnc(NC3CCCC3)c1)C2 [Compound 350, (S)—N-(3-(5-bromo-6-((4-methyloxazol-5-yl)methoxy)-3,4-dihydroisoquinolin-2(1H)-yl)-2-hydroxypropyl)-2-(cyclopentylamino)isonicotinamide] | 50 to 500 | ≥ 5000 | 50 to 500 | ≥ 10000 | ≥ 10000 | A (a Ki ratio greater than or equal to 10 fold between the Ki in the presence of SAM and the Ki in the presence of MTA) | C* (an IC50 ratio of less than 3 fold between the IC50 in the HAP1 MTAP-intact cell line and the HAP1 MTAP-deleted cell line)
8 | Cc1c(OCc2cnco2)ccc2c1CCN(C[C@@H](O)CNC(=O)c1cccc(NC3CCC3)c1)C2 [Compound 351, 3-(cyclobutylamino)-N-[(2S)-2-hydroxy-3-{5-methyl-6-[(1,3-oxazol-5-yl)methoxy]-1,2,3,4-tetrahydroisoquinolin-2-yl}propyl]benzamide] | 500 to 5000 | ≥ 5000 | 50 to 500 | ≥ 10000 | ≥ 10000 | A (a Ki ratio greater than or equal to 10 fold between the Ki in the presence of SAM and the Ki in the presence of MTA) | C* (an IC50 ratio of less than 3 fold between the IC50 in the HAP1 MTAP-intact cell line and the HAP1 MTAP-deleted cell line)

Further lines, with some results ahead:

Row | IC50 (PRMT5 [1]) [nM] | IC50 (PRMT5 [2]) [nM] | IC50 (PRMT5 [3]) [nM] | IC50 (HAP1 MTAP-intact) [nM] | IC50 (HAP1 MTAP-deleted) [nM] | SMILES | SAM/MTA Ratio (PRMT5 [3]) | MTAP Intact/Deleted Ratio (HAP1 MTAP-deleted)
9 | 50 to 500 | 500 to 5000 | 50 to 500 | ≥ 10000 | 1000 to 10000 | Cc1c(OCc2cnco2)cc(F)c2c1CCN(C[C@@H](O)CNC(=O)c1ccnc(NC3CCC3)c1)C2 [Compound 341, 2-(cyclobutylamino)-N-[(2S)-3-[8-fluoro-5-methyl-6-(oxazol-5-ylmethoxy)-3,4-dihydro-1H-isoquinolin-2-yl]-2-hydroxy-propyl]pyridine-4-carboxamide] | A (a Ki ratio greater than or equal to 10 fold between the Ki in the presence of SAM and the Ki in the presence of MTA) | B* (an IC50 ratio greater than or equal to 3 fold but lower than 10 fold between the IC50 in the HAP1 MTAP-intact cell line and the HAP1 MTAP-deleted cell line)
10 | 50 to 500 | 500 to 5000 | 50 to 500 | ≥ 10000 | < 1000 | CC(=O)N1CC(Nc2cc(C(=O)NC[C@H](O)CN3CCc4c(ccc(OCc5cnco5)c4Cl)C3)nc(C(C)C)n2)C1 [Compound 342, (S)-6-((1-acetylazetidin-3-yl)amino)-N-(3-(5-chloro-6-(oxazol-5-ylmethoxy)-3,4-dihydroisoquinolin-2(1H)-yl)-2-hydroxypropyl)-2-isopropylpyrimidine-4-carboxamide] | A (a Ki ratio greater than or equal to 10 fold between the Ki in the presence of SAM and the Ki in the presence of MTA) | A* (an IC50 ratio greater than or equal to 10 fold between the IC50 in the HAP1 MTAP-intact cell line and the HAP1 MTAP-deleted cell line)
11 | 50 to 500 | ≥ 5000 | 50 to 500 | ≥ 10000 | ≥ 10000 | Cc1ncoc1COc1ccc2c(c1Cl)CCN(C[C@@H](O)CNC(=O)c1cccc(NC3CCC3)c1)C2 [Compound 344, N-[(2S)-3-{5-chloro-6-[(4-methyl-1,3-oxazol-5-yl)methoxy]-1,2,3,4-tetrahydroisoquinolin-2-yl}-2-hydroxypropyl]-3-(cyclobutylamino)benzamide] | A (a Ki ratio greater than or equal to 10 fold between the Ki in the presence of SAM and the Ki in the presence of MTA) | C* (an IC50 ratio of less than 3 fold between the IC50 in the HAP1 MTAP-intact cell line and the HAP1 MTAP-deleted cell line)
12 | 50 to 500 | ≥ 5000 | 50 to 500 | ≥ 10000 | 1000 to 10000 | COCCN(C)c1cc(C(=O)NC[C@H](O)CN2CCc3c(ccc(OCc4cnco4)c3Cl)C2)cc(NC2CCC2)n1 [Compound 345] | A (a Ki ratio greater than or equal to 10 fold between the Ki in the presence of SAM and the Ki in the presence of MTA) | B* (an IC50 ratio greater than or equal to 3 fold but lower than 10 fold between the IC50 in the HAP1 MTAP-intact cell line and the HAP1 MTAP-deleted cell line)
13 | 50 to 500 | ≥ 5000 | 50 to 500 | ≥ 10000 | ≥ 10000 | O=C(NC[C@H](O)CN1CCc2c(ccc(OCc3cnco3)c2Cl)C1)c1ccnc(NC2CCCC(F)(F)C2)c1 (stereo partly shown) [Compound 347] | A (a Ki ratio greater than or equal to 10 fold between the Ki in the presence of SAM and the Ki in the presence of MTA) | C* (an IC50 ratio of less than 3 fold between the IC50 in the HAP1 MTAP-intact cell line and the HAP1 MTAP-deleted cell line)
